pKd: −log10 of the molar value. Calls of active or inactive are those of the source. The calls are words filed in the database; no cut-off is given here.
Experiments:
[1] = Oral bioavailability in Sprague-Dawley rat at 10 mg/kg measured up to 24 hrs by LC-MS/MS analysis; format: ADME, organism-based; conditions: in vivo
NCI-H322M = test: Antiproliferative activity against human NCI-H322M cells assessed as growth inhibition incubated for 72 hrs by luminescence assay; format: functional
786-0 = test: Antiproliferative activity against human 786-0 cells assessed as growth inhibition incubated for 72 hrs by luminescence assay; format: functional
NCI-H23 = test: Antiproliferative activity against human NCI-H23 cells assessed as growth inhibition incubated for 72 hrs by luminescence assay; format: functional
MDA-MB-468 = test: Antiproliferative activity against human MDA-MB-468 cells assessed as growth inhibition incubated for 72 hrs by luminescence assay; format: functional
M14 = test: Antiproliferative activity against human M14 cells assessed as growth inhibition incubated for 72 hrs by luminescence assay; format: functional
[2] = Metabolic stability in dog plasma assessed as half life at 100 uM measured upto 120 mins by LC-MS/MS analysis; format: ADME, cell-free, Canis lupus familiaris
Malme-3M = test: Antiproliferative activity against human Malme-3M cells assessed as growth inhibition incubated for 72 hrs by luminescence assay; format: functional
[3] = Metabolic stability in monkey plasma assessed as parent compound remaining at 100 uM measured after 2 hrs by LC-MS/MS analysis; format: ADME, cell-free, Macaca mulatta; conditions: rhesus monkey, read-out: Stability
OVCAR-8 = test: Antiproliferative activity against human OVCAR-8 cells assessed as growth inhibition incubated for 72 hrs by luminescence assay; format: functional
MDA-MB-435 = test: Antiproliferative activity against human MDA-MB-435 cells assessed as growth inhibition incubated for 72 hrs by luminescence assay; format: functional
[4] = Metabolic stability in human liver microsomes assessed as half life incubated for 10 mins by LC-MS/MS analysis; format: ADME, Microsome
[5] = Clearance in Sprague-Dawley rat at 1 mg/kg, iv measured up to 24 hrs by LC-MS/MS analysis; format: ADME, organism-based; conditions: in vivo
[6] = molecular target: Histone deacetylase (Homo sapiens) (UniProt Q13547+O15379+Q9UBN7+Q92769+Q9UQL6+Q8WUI4+Q9BY41+Q96DB2+P56524+Q9UKV0+Q969S8); test: Inhibition of HDAC in human HCT-116 cells assessed as increase in Ac-H4 expression at 50 nM measured after 24 hrs by western blot analysis; format: cell-based
[7] = Metabolic stability in dog plasma assessed as parent compound remaining at 100 uM measured after 2 hrs by LC-MS/MS analysis; format: ADME, cell-free, Canis lupus familiaris; conditions: read-out: Stability
T47D = test: Antiproliferative activity against human T47D cells assessed as growth inhibition incubated for 72 hrs by luminescence assay; format: functional
UACC-257 = test: Antiproliferative activity against human UACC-257 cells assessed as growth inhibition incubated for 72 hrs by luminescence assay; format: functional
UO-31 = test: Antiproliferative activity against human UO-31 cells assessed as growth inhibition incubated for 72 hrs by luminescence assay; format: functional
[8] = Metabolic stability in human plasma assessed as parent compound remaining at 100 uM measured after 2 hrs by LC-MS/MS analysis; format: ADME, cell-free; conditions: read-out: Stability
DU-145 = test: Antiproliferative activity against human DU-145 cells assessed as growth inhibition incubated for 72 hrs by luminescence assay; format: functional
[9] = Metabolic stability in monkey liver microsomes assessed as half life incubated for 10 mins by LC-MS/MS analysis; format: ADME, Macaca mulatta, Microsome; conditions: rhesus monkey
HL-60 = test: Antiproliferative activity against human HL-60 cells assessed as growth inhibition incubated for 72 hrs by luminescence assay; format: functional
Hs-578T = test: Antiproliferative activity against human Hs-578T cells assessed as growth inhibition incubated for 72 hrs by luminescence assay; format: functional
KM12 = test: Antiproliferative activity against human KM12 cells assessed as growth inhibition incubated for 72 hrs by luminescence assay; format: functional
OVCAR-3 = test: Antiproliferative activity against human OVCAR-3 cells assessed as growth inhibition incubated for 72 hrs by luminescence assay; format: functional
[10] = Metabolic stability in rat liver microsomes assessed as half life incubated for 10 mins by LC-MS/MS analysis; format: ADME, Microsome
[11] = Tmax in Sprague-Dawley rat at 10 mg/kg, po measured up to 24 hrs by LC-MS/MS analysis; format: ADME, organism-based; conditions: in vivo
[12] = Metabolic stability in human plasma assessed as half life at 100 uM measured upto 120 mins by LC-MS/MS analysis; format: ADME, cell-free
[13] = Binding affinity to SNAI1 (unknown origin) assessed as dissociation constant; set-up: species or system Homo sapiens
[14] = Cmax in Sprague-Dawley rat at 10 mg/kg, po measured up to 24 hrs by LC-MS/MS analysis; format: ADME, organism-based; set-up: route oral, dose 10 mg/kg, time <=24; conditions: in vivo
TK-10 = test: Antiproliferative activity against human TK-10 cells assessed as growth inhibition incubated for 72 hrs by luminescence assay; format: functional
[15] = Metabolic stability in rat liver microsomes assessed as intrinsic clearance incubated for 10 mins by LC-MS/MS analysis; format: ADME, Microsome; conditions: read-out: CLH
MCF7 = test: Antiproliferative activity against human MCF7 cells assessed as growth inhibition incubated for 72 hrs by luminescence assay; format: functional
NCI-H522 = test: Antiproliferative activity against human NCI-H522 cells assessed as growth inhibition incubated for 72 hrs by luminescence assay; format: functional
[16] = Metabolic stability in rat plasma assessed as half life at 100 uM measured upto 120 mins by LC-MS/MS analysis; format: ADME, cell-free
OVCAR-5 = test: Antiproliferative activity against human OVCAR-5 cells assessed as growth inhibition incubated for 72 hrs by luminescence assay; format: functional
[17] = Metabolic stability in rat plasma assessed as parent compound remaining at 100 uM measured after 2 hrs by LC-MS/MS analysis; format: ADME, cell-free; conditions: read-out: Stability
HCT-15 = test: Antiproliferative activity against human HCT-15 cells assessed as growth inhibition incubated for 72 hrs by luminescence assay; format: functional
BT-549 = test: Antiproliferative activity against human BT-549 cells assessed as growth inhibition incubated for 72 hrs by luminescence assay; format: functional
SF-539 = test: Antiproliferative activity against human SF-539 cells assessed as growth inhibition incubated for 72 hrs by luminescence assay; format: functional
HOP-62 = test: Antiproliferative activity against human HOP-62 cells assessed as growth inhibition incubated for 72 hrs by luminescence assay; format: functional
[18] = AUC (0 to t) in Sprague-Dawley rat at 10 mg/kg, po measured up to 24 hrs by LC-MS/MS analysis; format: ADME, organism-based; set-up: route oral, dose 10 mg/kg, time <=24; conditions: in vivo
COLO 205 = test: Antiproliferative activity against human COLO 205 cells assessed as growth inhibition incubated for 72 hrs by luminescence assay; format: functional
NCI-H460 = test: Antiproliferative activity against human NCI-H460 cells assessed as growth inhibition incubated for 72 hrs by luminescence assay; format: functional
K562 = test: Antiproliferative activity against human K562 cells assessed as growth inhibition incubated for 72 hrs by luminescence assay; format: functional
SW-620 = test: Antiproliferative activity against human SW-620 cells assessed as growth inhibition incubated for 72 hrs by luminescence assay; format: functional
SNB-19 = test: Antiproliferative activity against human SNB-19 cells assessed as growth inhibition incubated for 72 hrs by luminescence assay; format: functional
NCI-H226 = test: Antiproliferative activity against human NCI-H226 cells assessed as growth inhibition incubated for 72 hrs by luminescence assay; format: functional

F [1]: 7.3% | GI50 (NCI-H322M): 1.01 µM | GI50 (786-0): 0.466 µM | GI50 (NCI-H23): 0.603 µM | GI50 (MDA-MB-468): 0.432 µM | half-life at 100 µM [2]: 7.15 h | remaining at 2 h, 100 µM [3]: 82.4% | GI50 (OVCAR-8): 0.483 µM | GI50 (MDA-MB-435): 0.0361 µM | half-life [4]: 1.1 h | clearance [5]: 1.45 L/h/kg | Activity [6]: Active | remaining at 2 h, 100 µM [7]: 85.7% | GI50 (T47D): 1.12 µM | remaining at 2 h, 100 µM [8]: 79.1% | GI50 (DU-145): 0.461 µM | half-life [9]: 0.463 h | GI50 (HL-60): 0.268 µM | GI50 (OVCAR-3): 0.202 µM | half-life [10]: 0.21 h | Tmax [11]: 4 h | half-life at 100 µM [12]: 5.62 h | pKd [13]: 6.74 | Cmax [14]: 6.61 ng/mL | microsomal CLint [15]: 110 µL/min/mg | GI50 (MCF7): 0.0518 µM | GI50 (NCI-H522): 0.0488 µM | half-life at 100 µM [16]: 8.58 h | GI50 (OVCAR-5): 0.657 µM | remaining at 2 h, 100 µM [17]: 105% | GI50 (HCT-15): 0.424 µM | GI50 (BT-549): 0.296 µM | AUCt [18]: 0.0521 µg·h/mL | GI50 (COLO 205): 0.296 µM | GI50 (NCI-H460): 0.395 µM | GI50 (K562): 0.0487 µM | GI50 (SW-620): 0.426 µM | GI50 (NCI-H226): 2.7 µM
SMILES: Cc1cc(Nc2nc(SCc3ccc(C(=O)Nc4ccc(F)cc4N)cc3)nn3cccc23)n[nH]1
GI50 (M14): 0.289 µM | GI50 (Malme-3M): 1.83 µM | GI50 (UACC-257): 3.69 µM | GI50 (UO-31): 1.33 µM | GI50 (Hs-578T): 0.429 µM | GI50 (KM12): 0.284 µM | GI50 (TK-10): 1.21 µM | GI50 (SF-539): 0.282 µM | GI50 (HOP-62): 0.556 µM | GI50 (SNB-19): 0.536 µM

Source: ChEMBL document CHEMBL5046255, “Design and synthesis of dual inhibitors targeting snail and histone deacetylase for the treatment of solid tumour cancer” (Eur J Med Chem, 2022)
